The values below come from US7258999B2, “PTH responsive gene” (Wyeth, priority 2002, dated 2007).

Experiment [1] concerns Ovariectomized Rats with Established Osteopenia. The experiment can be described thus: pQCT total and trabecular density (BMD) of proximal tibia in OVX rats. The experiment is classed as in vivo, rat. Conditions: for ΔTotal Density / ΔTrabecular Density: 40 μg/kg sc, mean ± SEM. As for the experimental part: The total density of the proximal tibia was evaluated in anesthetized rats using peripheral quantitative computed tomography (pQCT) with XCT-960M (Stratec Medizintechnik, Pforzheim, Germany). The baseline and post-treatment measurements were performed in anesthetized rats as follows: The right hind limb was passed through a polycarbonate tube with a diameter of 25 mm and taped to an acrylic frame with the ankle joint at a 90° angle and the knee joint at 180°. The polycarbonate tube was affixed to a sliding platform that maintained it perpendicular to the aperture of the pQCT. The platform was adjusted so that the distal end of the femur and the proximal end of the tibia would be in the scanning field. A two dimensional scout view was run for a length of 10 mm and a line resolution of 0.2 mm. […] The pQCT scan was initiated 3.4 mm distal from this point. […] A region of interest including the tibia but excluding the fibula was outlined. The soft tissue was automatically removed using an iterative algorithm. The density of the remaining bone (Total density) was reported in mg/cm^3. The change in total density was calculated for each animal by subtracting post-treatment and baseline total density values.
Female Wister rats 4 weeks of age were treated with vehicle (saline) and human PTH (1-34) at a dose of 40 μg/kg of body weight for eight days. Prior to PTH administration animals were ovariectomized (OVX). Three weeks post OVX total BMD was measured to determine if osteopenia was established. Subcutaneous injection of PTH once a day represented intermittent administration of PTH, while osmotic pump with release rate of 40 μg/kg/day implanted under the skin represented continuous way of PTH administration. On the eight day of treatment, 6 hours post treatment animals were scarified and samples were collected for further analysis. Each treatment group contained 8 animals.
PTH (1-34) in a dose of 40 μg/kg was administered for eight days to the 3 weeks OVX rats in intermitted and continuous manner to induce anabolic and catabolic PTH effects respectively. As described in General Method section, intermittent administration of PTH was presented by once a day subcutaneous injection of PTH while continues administration was presented with osmotic pumps implanted under the skin with release rate of 40 μg/kg a day. Total bone mineral density was measured using pQCT. Intermittent PTH injection induced significant increases in total BMD, with Δ BMD of […] (FIG. 1). […] Thus, PTH exerts its effect on bone anabolic and catabolic (i.e., causing a decrease in BMD) depending of the way of its administration.
In order to examine whether changes in PAIGB expression with intermittent PTH treatment correlates with effects of PTH on bone, samples from rats treated with PTH for 2, 4 and 8 days were subjected to BMD measurements for both total and trabecular bone (trabecular density of proximal tibia was measured). Two days PTH treatment increases expression of PAIGB. At the same time point significant increase in trabecular BMD (Δ trabecular density: 6.98+/−17.90 with PTH treatment vs −27.1+/−9.27 with vehicle treatment) was detected without any significant changes in total BMD (Δ total density: −9.15+/−2.94 PTH vs 0.69+/−4.10 vehicle) (Table 1).

Another experiment deals with PAIGB expression. The experiment in a line: RADE differential display of rat tibia RNA after PTH administration. The experiment is classed as in vivo. Conditions: eight days. As for the experimental part:
Total RNA was isolated and each RNA sample was then treated with 20 units of DNAse (Ambion, Austin, Tex.). After RNA cleaning, samples were split into three reverse transcription (RT) reactions. Each RT reaction contained 4 μg RNA, 1000 units SuperScript II RT (Gibco), 100 μM dNTPs and 0.2 μM anchor primer in a final volume of 100 μl. Anchor primers had the sequence (5′→3′) T11A, T11C, or T11G. For differential display each cDNA sample was subjected, in duplicate, to 80 PCR reactions using the appropriate anchor primer and one of 80 arbitrary primers (HAPs 1-80; Genhunter). PCR reactions contained in a final volume of 20 ul, 20 ng cDNA, 2 μM dNTPs, 0.2 μM anchor primer, 0.2 μM arbitrary primer, 1 unit Taq polymerase (Applied Biosystems (AB), Foster City, Calif.), and 2.5 μCi [α-^33P]dATP (2000 Ci/mmole). PCR conditions were as follows: 1 cycle of 92° C./2′, 40 cycles of [92° C./15″, 40° C./2′, 72° C./30″], and 1 cycle of 72° C./5′. PCR samples were then loaded onto a 50 cm 6% sequencing gel and run at 200 volts constant. Differentially expressed bands were excised from the dried gel. […]
Female Wister rats 4 weeks of age were treated with vehicle (saline) and human PTH (1-34) at a dose of 40 μg/kg of body weight for eight days. […] Three weeks post OVX total BMD was measured to determine if osteopenia was established. […]

The mark [2] stands for this setting: four days treatment, listed as HPTH (1–34).
[3] abbreviates: four days treatment, listed as PTH.
The mark [4] stands for this setting: two days treatment, listed as HPTH (1–34).
Where [5] appears, read: two days treatment, listed as PTH.

As for human PTH (1-34), the “change in total BMD” value in experiment [1] (continuous: osmotic pump 40 μg/kg a day, eight days, 3 weeks OVX rats) was “did not induce any changes”. The “ΔTotal Density” value is -10.56 ± 3.11 mg/mL in experiment [1] (setting [2]), 10.56 ± 3.11 mg/mL in experiment [1] (setting [3]), -9.15 ± 2.94 mg/mL in experiment [1] (setting [4]) and -9.15 ± 2.94 mg/mL in experiment [1] (setting [5]). Further, the “ΔTrabecular Density” value in experiment [1] (setting [2]) amounted to 8.70 ± 9.98 mg/mL; in experiment [1] (setting [3]) it was 8.70 ± 9.98 mg/mL; in experiment [1] (setting [4]), 6.98 ± 17.90 mg/mL; in experiment [1] (setting [5]) it was 6.98 ± 17.90 mg/mL. Further, the Δ BMD (total BMD) in experiment [1] (intermittent: 40 μg/kg once a day sc, eight days, 3 weeks OVX rats) is 80 mg/cm³. For the same substance, the “PAIGB expression in bone RNA (RADE)” value in the experiment with PAIGB expression (continuous administration, 40 μg/kg/day) was “did not induce any changes”; in the experiment with PAIGB expression (intermittent injection, 40 μg/kg), “induced”.
